Consider one compound from US11214561B2, “Histone methyltransferase EZH2 inhibitor, preparation method and pharmaceutical use thereof” (ANCUREALL PHARMACEUTICAL (SHANGHAI) CO., LTD., priority 2017, dated 2022).

The structures appear in SMILES notation.

For data set [1], the system named is Karpas-422 (EZH2 Y641N). Nature of the data set: In vitro 50% growth inhibition (GI50), MTT/CCK8, Karpas-422 cells. In kind it is cell-based. Conditions: Homo sapiens, KARPAS-422, 144 h; Drug treatment for 6 days.
Data set [2] relates to SU-DHL-8 (EZH2 WT). Nature of the data set: In vitro 50% growth inhibition (GI50), MTT/CCK8, SU-DHL-8 cells. The data set is classed as cell-based. To be noted: Homo sapiens, SU-DHL-8, 144 h; Drug treatment for 6 days.
Data set [3] deals with Pfeiffer cells (EZH2 A677G). Nature of the data set: Compound washout effect on in vitro growth of Pfeiffer cells (irreversible inhibition). In kind it is cell-based, Human. To be noted: for Pfeiffer cells growth rate (%) (10 days), Continuous: continuous treatment; for Pfeiffer cells growth rate (%) (10 days), Washout: washout after 12 h. The protocol:
The test of the compound washout effect on the in vitro growth inhibition of human diffuse large cell B lymphoma lymphocyte Pfeiffer (ATCC) expressing EZH2 A677G mutant protein was performed as follows.
Log-phase Pfeiffer cells were centrifuged directly (1700 rpm, 3 min), and the supernatant was discarded and the cells were counted. Cells were prepared with the complete medium (2×10^4 cells per ml), inoculated to 96-well plates (Corning), 200 μl per well, and incubated overnight at 37° C., 5% CO2. […] The cells were further cultured for 12 h. The cells in half of the test wells were then collected by centrifugation (parallel to 2 wells), and washed three times with serum-free cell culture medium, and then resuspended in a same volume of complete cell culture medium (200 μl). It was further cultured together with the untreated cells for 10 days at 37° C., 5% CO2.

A short description of data set [4]: In vivo pharmacokinetics in rats. To be noted: SD rats. The protocol: Test Example 4 Study of In Vivo Pharmacokinetics of the Present Compounds in Rats
Male SD rats (Shanghai Sippr-BK Experimental Animal Co., Ltd) were purchased and kept in Shanghai University of Traditional Chinese Medicine animal center (approved by the ethics committee of Shanghai University of Traditional Chinese Medicine) for 7 days. The rats were randomly divided into 4 groups (˜220 g), 3 rats for each group. Animals were administered intravenously (iv) and orally (po). The rats in po group were starved for 12 hours before administration. After administration, blood was collected from the orbital venous plexus at 0 min (before administration), 2 min, 5 min, 15 min, 30 min, 1 h, 2 h, 4 h, 6 h, 8 h and 24 h. About 200 ul of blood was collected at each time point, and were collected in 1.5 ml centrifuge tube containing heparin sodium. The upper blood […] were collected by centrifugation (8000 rpm, 3 min) and stored at −80° C.
Preparation of test samples: 125.0 mg compound 34 or compound 35 was weighed and added with 4 ml ultrapure water, and 25 ul methanesulfonic acid was added with stirring. The mixture was further stirred until clear and transparent (pH ˜3.32). 1 ml of the above solution was added with 4 ml of ultra-pure water to obtain 5 mg/ml of compound 34 or compound 35 solution (pH=3.5).
Dose and mode of administration: single oral dose (100 mpk) and single intravenous dose (5 mpk).
Administration volume: 4 ml/kg (orally), 1 ml/kg (intravenously).
The plasma concentration of the compound was determined by LC-MS/MS (AB scexqtrap@4500 LCMS/MS system). Pharmacokinetic parameters were calculated by WinNonlin (a professional software). The experiment was repeated once.

Consider `C=CC(=O)N1CCC(N(CC)c2cc(-c3ccc(CN4CCCCC4)cc3)cc(C(=O)NCc3c(C)cc(C)[nH]c3=O)c2C)CC1` [Example 34, N-(4,6-dimethyl-2-oxo-1,2-dihydro-pyridin-3-ylmethyl)-5-[(1-acryloyl-piperidin-4-yl)-ethyl-amino]-4-methyl-4′-(piperidin-1-ylmethyl)-[1,1′-biphenyl]-3-carboxamide], for which the GI50 in data set [1] was 10 to 100 nM; in data set [2], over 1000 nM. Also, the “Pfeiffer cells growth rate (%) (10 days), Continuous” value in data set [3] (Drug concentration 25 nM), in data set [3] (Drug concentration 50 nM) and in data set [3] (Drug concentration 100 nM) was 0% throughout. For the same compound, the “Pfeiffer cells growth rate (%) (10 days), Washout” value in data set [3] (Drug concentration 25 nM), in data set [3] (Drug concentration 50 nM) and in data set [3] (Drug concentration 100 nM) was 0% each time. Also, the “reversibility of inhibitory effect on cell growth in vitro, in words” value in data set [3] (washout treatment of Pfeiffer cells) is given as “potential irreversible inhibitory effect”. Moreover, in data set [4], the “bioavailability, in words” value was “good bioavailability”. The bioavailability in data set [4] (male, rat, plasma, IV 5 mg/kg, PO 100 mg/kg, methanesulfonic acid aqueous solution) is 48.8%.
